Source: PMC8965344 (Frontiers in Microbiology, 2022)
Read-outs that look alike come from different tables or passages of the source.

Columns and labels:
[1] = target: T1, human TLR2 (Homo sapiens, UniProt O60603+Q15399); assay: cell-based
T1 construct: expressed in transfected cells; host or cells: HEK293-NF-κB-Luc cells (clone LP58), stably transfected

[2] = in vivo; cited from earlier work
[3] = test system: B. anthracis (Ames strain); assay type: in vivo, Bacillus anthracis; details: 13 days
[4] = test system: Streptococcus pneumoniae; details: in vivo; cited from earlier work
[5] = test system: B. anthracis (Ames strain); assay type: in vivo, Bacillus anthracis; details: for survival rate: 17 days
[6] = test system: human PBMCs
[7] = test system: B. anthracis (Ames strain); parameters: species or system Bacillus anthracis; details: in vivo
[8] = test system: B. anthracis; parameters: species or system Bacillus anthracis; details: in vivo
[9] = test system: S. aureus; details: in vivo; cited from earlier work
[10] = test system: PA; details: cited from earlier work

T1 sequence (O60603 21-784): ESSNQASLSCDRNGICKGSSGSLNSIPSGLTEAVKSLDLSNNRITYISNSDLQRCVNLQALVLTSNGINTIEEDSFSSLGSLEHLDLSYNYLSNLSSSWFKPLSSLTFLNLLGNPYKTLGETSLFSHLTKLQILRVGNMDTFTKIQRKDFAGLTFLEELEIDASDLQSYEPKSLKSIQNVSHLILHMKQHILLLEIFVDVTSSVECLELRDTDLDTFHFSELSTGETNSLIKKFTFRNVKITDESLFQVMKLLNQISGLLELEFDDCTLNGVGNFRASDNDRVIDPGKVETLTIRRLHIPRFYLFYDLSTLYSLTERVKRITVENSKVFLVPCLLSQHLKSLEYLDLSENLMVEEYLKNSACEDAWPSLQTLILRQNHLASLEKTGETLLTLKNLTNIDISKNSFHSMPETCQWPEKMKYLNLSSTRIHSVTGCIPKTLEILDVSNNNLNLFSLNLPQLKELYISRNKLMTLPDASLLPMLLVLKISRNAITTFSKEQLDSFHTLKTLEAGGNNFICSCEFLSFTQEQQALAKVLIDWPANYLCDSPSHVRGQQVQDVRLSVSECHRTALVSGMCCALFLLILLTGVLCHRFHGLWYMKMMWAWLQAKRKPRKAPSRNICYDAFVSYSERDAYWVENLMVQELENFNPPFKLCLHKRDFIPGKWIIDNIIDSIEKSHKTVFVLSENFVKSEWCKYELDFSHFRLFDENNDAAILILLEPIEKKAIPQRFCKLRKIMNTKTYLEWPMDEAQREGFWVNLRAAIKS
T1 sequence (Q15399 25-786): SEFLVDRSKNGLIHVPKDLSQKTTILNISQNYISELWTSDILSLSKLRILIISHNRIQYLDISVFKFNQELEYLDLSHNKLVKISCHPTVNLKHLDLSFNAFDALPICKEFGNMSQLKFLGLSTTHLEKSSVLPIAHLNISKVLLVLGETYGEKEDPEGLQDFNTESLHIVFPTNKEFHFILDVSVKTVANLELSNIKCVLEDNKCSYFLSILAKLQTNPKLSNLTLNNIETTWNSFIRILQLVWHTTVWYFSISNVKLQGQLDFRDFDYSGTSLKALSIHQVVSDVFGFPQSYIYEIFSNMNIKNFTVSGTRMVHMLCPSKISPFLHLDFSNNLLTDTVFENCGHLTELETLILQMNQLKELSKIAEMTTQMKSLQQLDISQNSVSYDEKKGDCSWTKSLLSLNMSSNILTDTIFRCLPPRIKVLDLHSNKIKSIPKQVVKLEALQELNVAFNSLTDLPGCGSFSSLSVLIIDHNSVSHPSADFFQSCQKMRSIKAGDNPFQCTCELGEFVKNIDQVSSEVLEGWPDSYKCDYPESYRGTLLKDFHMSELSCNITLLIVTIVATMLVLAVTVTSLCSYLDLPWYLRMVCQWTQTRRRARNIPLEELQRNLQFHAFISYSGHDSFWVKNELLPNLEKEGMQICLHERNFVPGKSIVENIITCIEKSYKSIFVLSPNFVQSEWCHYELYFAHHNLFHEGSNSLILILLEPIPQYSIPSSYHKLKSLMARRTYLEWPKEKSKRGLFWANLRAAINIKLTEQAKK

Molecule: CCCCCCCCCCCCCCCC(=O)N[C@@H](CSC[C@@H](COC(=O)CCCCCCCCCCC)OC(=O)CCCCCCCCCCC)C(=O)N[C@@H](C)C(=O)N[C@H](CCC(=O)O)C(N)=O [DA-98-WW07, (4R,7S,10R,14R)-4-carbamoyl-14-(dodecanoyloxy)-7-methyl-6,9,17-trioxo-10-palmitamido-16-oxa-12-thia-5,8-diazaoctacosanoic acid]
- EC50 [1]: 1040 ± 1160 nM
- efficacy (% Eff), NF-κB-Luciferase [1]: 101.36%

Molecule: CCc1nc2c(N)nc3ccccc3c2n1CCCCNS(C)(=O)=O [PF4878691]
- adverse effects in patients [2]: flu-like symptoms, lymphopenia and hypotension

Molecule: O=C(O)c1cn(C2CC2)c2cc(N3CCNCC3)c(F)cc2c1=O [ciprofloxacin]
- survival rate [3]: 50%

Molecule: MALP-2
- pulmonary bacterial burden in mice [4]: reduced pulmonary bacterial burden in mice

Molecule: ODN1826
- survival rate [5]: 0%

Molecule: Pam2CSK4
- induction of NF-kB activity [1]: dose dependent induction of NF-kB activity
- survival rate [5]: 20%
- induction of IFN-γ, TNF-α and IL-6 production [6]: able to induce aforementioned cytokine productions with varying potency

Molecule: Pam3CSK4
- induction of NF-kB activity [1]: dose dependent induction of NF-kB activity
- survival rate [5]: 60%
- protection of mice from lethal challenge of B. anthracis ([5]; in vivo): the best at protecting mice from lethal challenge of B. anthracis
- survival rate [7]: 40%
- survival rate after re-challenge [8]: 25%
- induction of IFN-γ, TNF-α and IL-6 production [6]: able to induce aforementioned cytokine productions with varying potency

Molecule: Pam3Cys
- protection from S. aureus endophthalmitis [9]: protected mice from S. aureus endophthalmitis, preserved retinal structural integrity, and maintained visual function

Molecule: Poly (I:C)
- survival rate [5]: 20%

Molecule: lipopolysaccharide [LPS]
- induction of NF-kB activity [1]: dose dependent induction of NF-kB activity
- induction of IFN-γ, TNF-α and IL-6 production [6]: able to induce aforementioned cytokine productions with varying potency

B1: obiltoxaximab (antibody, chains of the INN, looked up, V domains shown)
VH: QVQLQQSGPELKKPGASVKVSCKDSGYAFSSSWMNWVRQAPGQGLEWIGRIYPGDGDTNYNGKFQGRVTITADKSSSTAYMELSSLRSEDTAVYFCARSGLLRYAMDYWGQGTLVTVSS
VL: DIQMTQSPSSLSASVGDRVTITCRASQDIRNYLNWYQQKPGKAVKLLIYYTSRLLPGVPSRFSGSGSGTDYSLTISSQEQEDIGTYFCQQGNTLPWTFGQGTKVEIR
- binding to PA and block of binding to anthrax toxin receptors [10]: bind to PA and block its binding to anthrax toxin receptors
